Drawing on ChEMBL document CHEMBL4368864, “The transition to magic bullets - transition state analogue drug design” (Medchemcomm, 2018), this text covers Ki and bioavailability for 9 compounds.

Series [1] deals with T1, Purine nucleoside phosphorylase (Homo sapiens, UniProt P00491).
T1 sequence (P00491 whole entry): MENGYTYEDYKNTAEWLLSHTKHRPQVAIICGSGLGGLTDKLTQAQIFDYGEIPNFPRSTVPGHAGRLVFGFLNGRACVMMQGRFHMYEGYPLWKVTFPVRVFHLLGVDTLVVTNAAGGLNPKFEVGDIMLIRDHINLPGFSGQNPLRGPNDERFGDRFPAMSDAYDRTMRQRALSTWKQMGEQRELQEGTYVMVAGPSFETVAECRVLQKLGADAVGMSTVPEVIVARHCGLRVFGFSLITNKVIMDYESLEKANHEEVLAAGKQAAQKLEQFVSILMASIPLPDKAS
Kind of series: Inhibition of human PNP.

Series [2] can be described thus: Inhibition of Crithidia fasciculata nucleoside hydrolase.
Series [3] addresses T2, Purine nucleoside phosphorylase (Bos taurus, UniProt P55859).
T2 sequence (P55859 whole entry): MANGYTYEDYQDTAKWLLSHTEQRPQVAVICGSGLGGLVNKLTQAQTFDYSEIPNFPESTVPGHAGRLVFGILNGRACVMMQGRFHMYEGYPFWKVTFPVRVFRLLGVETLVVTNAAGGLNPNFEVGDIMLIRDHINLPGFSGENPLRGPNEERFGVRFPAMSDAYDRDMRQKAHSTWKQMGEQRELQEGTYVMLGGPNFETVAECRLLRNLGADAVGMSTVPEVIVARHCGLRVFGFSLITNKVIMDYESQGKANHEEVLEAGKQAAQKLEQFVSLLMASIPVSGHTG
Briefly: Inhibition of bovine spleen PNP using inosine as substrate by xanthine oxidase coupled assay.

For series [4], the target named is T1, Purine nucleoside phosphorylase. Briefly: Inhibition of human PNP using inosine as substrate by xanthine oxidase coupled assay.
Series [5] in a line: Oral bioavailability in mouse. The class given is ADME, organism-based. Particulars: in vivo.

Regarding `Nc1nc2c(Cc3cccnc3)c[nH]c2c(=O)[nH]1` [PELDESINE], in series [1], the Ki came out at 13.5 nM.

On to `O=c1[nH]cnc2c1ncn2[C@@H]1O[C@H](CO)[C@@H](O)[C@H]1O` [INOSINE], for which the Ki in series [2] amounted to 380000 nM.

As to `Nc1ncnc2c([C@@H]3N[C@H](CO)[C@@H](O)[C@H]3O)c[nH]c12`, the results for the Ki in series [3] and in series [4] were 2600 nM and 33 nM, respectively.

Regarding `O=c1[nH]ccn2c([C@@H]3N[C@H](CO)[C@@H](O)[C@H]3O)cnc12`, the affinity in series [3] corresponds to a Ki of 422000 nM.

Turning to `OC[C@H]1N[C@@H](c2cnc[nH]2)[C@H](O)[C@@H]1O`, in series [2], the inhibition constant Ki stood at 2500 nM.

The compound `O=c1[nH]cnc2c([C@@H]3N[C@H](CO)[C@@H](O)[C@H]3O)c[nH]c12` [FORODESINE] returned a bioavailability in series [5] of 63%.

In series [1], `Nc1nc2c(ncn2COCCO)c(=O)[nH]1` [ACYCLOVIR] registered a Ki of 91000 nM.

In the case of `OC[C@H]1NC[C@H](O)[C@@H]1O` [IMINORIBITOL], affinity in series [2] was put at a Ki of 10000 nM.

`OC[C@H]1N[C@@H](c2ccccc2)[C@H](O)[C@@H]1O`: the inhibitory constant (Ki) in series [2] worked out at 170 nM.
